Assay results published in PMC4192545, “Suramin Inhibits Hsp104 ATPase and Disaggregase Activity” (PLoS ONE, 2014).

How the values were obtained:
Hsp104^N728A = target: T1, Hsp104^N728A (Saccharomyces cerevisiae, UniProt P31539, N728A); assay: ATPase assay, Hsp104^N728A; type: biochemical, yeast; settings: read-out: Hsp104^N728A ATPase activity relative to uninhibited protein
T1 construct: made in house; host or cells: E. coli BL21-DE3 RIL
Description: Wild-type or mutant Hsp104 (0.25 µM monomer) in ATPase buffer (20 mM HEPES-KOH pH 7.4, 20 mM NaCl and 10 mM MgCl2) was incubated for 60 or 10 min at 25°C in the presence of ATP (1 mM) as noted. ATPase activity was assessed by the release of inorganic phosphate determined by using a malachite green phosphate detection kit (Innova).
Figure 7 Hsp104 variants respond differently to Suramin than Hsp104^WT. (A) Hsp104 variants (0.25 µM monomer) were incubated for 10 min with ATP (1 mM) and varying concentrations of Suramin. The amount of Pi produced was measured by absorbance at 635 nm. Absorbance values were normalized to the absorbance produced by each Hsp104 variant in the absence of inhibitor. Values represent mean ±S.D. (n = 6). (B) Urea-denatured firefly luciferase aggregates were incubated for 90 min at 25°C with Hsp104 variants (1 µM hexamer) plus 1∶1 mixtures of ATP and ATPγS (or ATP alone) and varying concentrations of Suramin. Luciferase reactivation was then determined and normalized to untreated disaggregase activity for each variant in the presence of ATPγS: ATP (or ATP alone). 1∶1 mixtures of ATP and ATPγS were used for Hsp104^WT and Hsp104^T317A, while ATP alone was used for Hsp104^A503V and Hsp104^N728A. Values represent mean ±S.D. (n = 6–12).

Hsp104^WT = target: T2, Hsp104^WT (Saccharomyces cerevisiae, UniProt P31539); assay: RepA1–70-GFP unfolding assay; type: biochemical, yeast; settings: GroELtrap, ATP:ATPγS 1:1
T2 construct: made in house; host or cells: E. coli BL21-DE3 RIL
T2 sequence (P31539 whole entry): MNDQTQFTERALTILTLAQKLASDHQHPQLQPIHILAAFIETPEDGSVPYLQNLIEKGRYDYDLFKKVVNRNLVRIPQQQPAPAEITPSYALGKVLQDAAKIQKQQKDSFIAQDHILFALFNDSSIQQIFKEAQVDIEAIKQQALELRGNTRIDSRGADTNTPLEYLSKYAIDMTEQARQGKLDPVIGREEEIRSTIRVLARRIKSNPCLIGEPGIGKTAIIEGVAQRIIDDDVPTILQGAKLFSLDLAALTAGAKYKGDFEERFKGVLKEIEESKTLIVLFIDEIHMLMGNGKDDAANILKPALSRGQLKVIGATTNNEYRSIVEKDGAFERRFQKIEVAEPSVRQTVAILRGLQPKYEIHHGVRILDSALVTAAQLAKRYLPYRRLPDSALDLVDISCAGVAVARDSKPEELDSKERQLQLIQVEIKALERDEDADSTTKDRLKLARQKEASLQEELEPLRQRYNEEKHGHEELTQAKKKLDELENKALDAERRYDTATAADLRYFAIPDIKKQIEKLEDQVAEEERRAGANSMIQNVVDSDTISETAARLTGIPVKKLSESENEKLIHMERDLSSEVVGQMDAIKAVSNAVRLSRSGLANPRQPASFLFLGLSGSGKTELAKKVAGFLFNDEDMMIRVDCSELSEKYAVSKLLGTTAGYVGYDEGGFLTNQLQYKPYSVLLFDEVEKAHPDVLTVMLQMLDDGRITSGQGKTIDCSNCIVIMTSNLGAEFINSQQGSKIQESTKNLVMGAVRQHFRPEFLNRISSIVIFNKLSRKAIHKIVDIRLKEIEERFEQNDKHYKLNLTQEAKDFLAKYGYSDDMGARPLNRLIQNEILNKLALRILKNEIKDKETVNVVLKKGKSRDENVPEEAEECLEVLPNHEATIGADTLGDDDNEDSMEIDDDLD
Description: RepA1–70-GFP unfolding was performed as described previously. Varying concentrations of Suramin (0, 25, or 100 µM) were included as noted.
Next, we determined that Suramin hinders the unfoldase activity of Hsp104 using a RepA1–70-GFP substrate ( Figure 4A ). To assess RepA1–70-GFP unfolding without interference from spontaneous refolding, we added GroELtrap, which captures unfolded proteins to prevent refolding, [71].
Figure 4 Suramin inhibits Hsp104-mediated substrate unfolding and translocation. (A) RepA1–70-GFP was incubated with Hsp104^WT and GroELtrap plus a 1∶1 mixture of ATP and ATPγS. GFP unfolding was measured by fluorescence. GroELtrap alone is shown as a negative control (red line). Fluorescence values were normalized to initial raw fluorescence for each sample. Values represent mean ±S.D. (n = 3). (B) FITC-casein (0.1 µM) was incubated at 25°C with HAP (1 µM hexamer) and ClpP (21 µM monomer) plus ATP (5 mM) and an ATP regeneration system. Degradation of FITC-casein was monitored by fluorescence. Initial fluorescence was subtracted from raw fluorescence values for each sample. HAP alone is shown as a negative control (red line). Values represent mean ±S.D. (n = 5).

T1 sequence (P31539 whole entry N728A): as the sequence (P31539 whole entry) above, with N728A counted along it

For `Cc1ccc(C(=O)Nc2ccc(S(=O)(=O)O)c3cc(S(=O)(=O)O)cc(S(=O)(=O)O)c23)cc1NC(=O)c1cccc(NC(=O)Nc2cccc(C(=O)Nc3cc(C(=O)Nc4ccc(S(=O)(=O)O)c5cc(S(=O)(=O)O)cc(S(=O)(=O)O)c45)ccc3C)c2)c1` [Suramin], the activity at 100 µM (Hsp104^N728A) was about 75%, the “Effect on RepA1–70-GFP unfolding by Hsp104” value (Hsp104^WT; Suramin 25 µM) was “only mildly inhibited” and the “Effect on RepA1–70-GFP unfolding by Hsp104” value (Hsp104^WT; Suramin 100 µM) was “prevented substrate unfolding”.
